# Tested on: DMPK
# Assay: DMPK knockdown by transfected antisense oligonucleotides in DM1 C15 myotubes at 0.5 nM and 50 nM
# Type: cell-based
# Details: 72 hours; for Normalized DMPK Remaining: relative to vehicle control = 1.00
# Method in brief: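 DMPK remaining was measured by qPCR 72 h post-transfection, normalized to lipofectamine-only vehicle wells (=1.00). Oligonucleotides were delivered at 0.5 and 50 nM final to DM1 C15 myoblasts differentiated seven days into myotubes, in triplicate.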
# [1] = 0.5 nM oligonucleotide, qPCR, relative to vehicle control
# [2] = 50 nM oligonucleotide, qPCR, relative to vehicle control
Substance,Percent DMPK Reduction [1] [%],"Normalized DMPK Remaining (0.5 nM oligonucleotide, qPCR)",Percent DMPK Reduction [2] [%],"Normalized DMPK Remaining (50 nM oligonucleotide, qPCR)",Percent DMPK Reduction (0.5 nM oligonucleotide) [%],Normalized DMPK Remaining (0.5 nM oligonucleotide),Percent DMPK Reduction (50 nM oligonucleotide) [%],Normalized DMPK Remaining (50 nM oligonucleotide)
367 (GAUGUCCCUGUGCACGUAGC; chemistry not given here) [compound 367],18.99,0.81,62.46,0.38,,,,
401 (CUCUGCCGGGUGAGCACCUC; chemistry not given here) [compound 401],,,,,25.25,0.75,74.36,0.26
368 (CAGCAGUGUCAGCAGGUCCC; chemistry not given here) [compound 368],25.67,0.74,51.97,0.48,,,,
357 (CCUCAGCCUCUGCCGCAGGG; chemistry not given here) [compound 357],10.87,0.89,55.22,0.45,,,,
462 (UCUGCCUCGCGUAGUGACU; chemistry not given here) [compound 462],,,,,3.53,0.96,86.86,0.13
352 (AAAUACCGAGGAAUGUCGGG; chemistry not given here) [compound 352],11.25,0.89,50.91,0.49,,,,
303 (CCGUUCCAUCUGCCCGCAGC; chemistry not given here) [compound 303],31.74,0.68,77.46,0.23,,,,
351 (UGAUGUCCCUGUGCACGUAG; chemistry not given here) [compound 351],20.58,0.79,59.00,0.41,,,,
449 (CCUCUGCCUCGCGUAGUUGA; chemistry not given here) [compound 449],,,,,7.39,0.93,85.33,0.15
378 (GGAUGUUGUCGGGUUUGAUG; chemistry not given here) [compound 378],,,,,4.26,0.96,40.81,0.59
295 (CCUUGUAGUGGACGAUCUUG; chemistry not given here) [compound 295],17.20,0.83,65.91,0.34,,,,
428 (UUGAUGUCCCUGUGCACGU; chemistry not given here) [compound 428],,,,,6.92,0.93,43.07,0.57
361 (GCCAUGACAAUCUCCGCCAG; chemistry not given here) [compound 361],30.96,0.69,81.00,0.19,,,,

# From US20230144436A1, “MUSCLE TARGETING COMPLEXES AND USES THEREOF FOR TREATING MYOTONIC DYSTROPHY” (Dyne Therapeutics, Inc., priority 2020, published 2023)
